The values below come from patent US8822435B2, “Bisphosphonate compounds” (Warner Chilcott Company, LLC, priority 2009, dated 2014).

Molecules are shown by their SMILES. Where “and” joins values, the source holds several entries; their conditions need not be identical. Identical values can stand only once.

Data set [1] is described as follows: Urinary recovery of cyclic acetal and conversion to bisphosphonate after IV administration to rats. It is filed as in vivo, rat. As to conditions: for dosed cyclic acetal converted to risedronate: male, Sprague-Dawley. Here is the method: (§1) Male, Sprague-Dawley, rats weighing approximately 200-400 g were studied.
(§2) All formulations were prepared within approximately 1 hour of dosing.
Generally, animals were administered a 1.7 micromole/kg, 2 ml/kg IV dose (tail vein) of the appropriate formulation using a syringe and attached butterfly needle. All animals remained fasted for an additional 4 hours post dose and were returned to ad libitum access to food thereafter.
(§3) Urine samples were collected into refrigerated plastic conical tubes at approximately 4, 8 and 24 hours post-dose. At the end of each collection period, samples were weighed and transferred to a −70° C. freezer for storage until analyzed.
The absorbed risedronate is stable in vivo and is not metabolized. After IV administration of risedronate to rats, about 60% of risedronate binds to bone and about 40% of risedronate dosed is excreted in urine. When risedronate cyclic acetal compounds are administered intravenously to rats, a percentage of the cyclic acetal can remain intact and can be excreted in urine while a percentage of the cyclic acetal can be converted to risedronate in vivo. Assuming risedronate formed in vivo has the similar tissue distribution profile as described above, about 40% of risedronate generated in vivo will be excreted in urine and about 60% of risedronate generated in vivo will bind to bone. Thus, the percentage of the cyclic acetal which is converted to risedronate in vivo is estimated using Formula A: […]
Risedronate cyclic acetal compounds were administered intravenously in saline (0.9% sodium chloride).

The nature of data set [2]: Solubility in water (remark in synthesis example). It is filed as physicochemical. As to conditions: calcium salt.
In data set [3] the test system is Sprague Dawley rats (Schenk Model). The experiment in a line: Schenk Model: bone mineral density of proximal tibial metaphysis by DXA. It is filed as in vivo, rat. As to conditions: for D20, 20% > BMD than control / LED (lowest effective dose): SQ once daily for 7 days, rats; for D20, 20% > BMD than control: logistic dose response relationship; for LED (lowest effective dose): significant anti-resorptive dose vs control; for bone density in the rat proximal tibial metaphysis: Schenk Model. Here is the method: The effect of the compounds (Example 62 (trans) and Example 128) on in vivo bone resorption inhibition and mineralization inhibition was evaluated in the Schenk Model, an animal model system known in the field of bone metabolism. The general principles of this model are disclosed in Shinoda et al., Calcif. Tissue Int., 35: 87-99 (1983); and in Schenk et al., Calcif: Tissue Res. 11: 196-214 (1973).
Male Sprague Dawley rats approximately 6 weeks old with weights ranging between 120 and 150 grams were placed into groups based on body weight, with 4-8 animals per group. All groups received treatment by subcutaneous injection (SQ) once daily for 7 days.
On day 7 after the start of dosing, all animals were euthanized via exsanguination under gas anesthesia and/or CO2. The right tibia and femur were dissected free and placed in 70% ethyl alcohol.
The proximal metaphysis of the right tibia was analyzed using dual energy x-ray absorptiometry (DXA). This provides information on changes in both cortical and cancellous bone density. The primary end-point for this study was bone mineral density (BMD) in the tibia measured using Hologics QDR-4500 densitometer (Hologics, Inc). Statistical evaluation of data was made using parametric and non-parametric analysis of variance and Fisher's protected t-test to determine a statistically significant effect compared to control animals, defined as the lowest effective (significant anti-resorptive) dose (LED).
The dose which increased (BMD) 20% compared to the vehicle group (D20) was calculated via a logistic dose response relationship, which estimates an efficacy value using all animals in the study (Lundy et al., J. Bone Min. Res. 22 (Suppl. 1): S443, (2007)).

A short description of data set [4]: Urinary recovery / risedronate exposure after intraduodenal (ID) and oral (PO) administration to fasted and fed rats. It is filed as in vivo, rat. As to conditions: for Amount Excreted: Risedronate (risedronate administered): dose 17 micromole/kg, rats. Here is the method: as §1, §2
The appropriate test article formulation was administered to each animal as a 17 micromole/kg, 2 mL/kg dose solution in 0.6% methylcellulose/0.2% Tween 80® by oral gavage. Alternatively, animals were dosed with a 17 micromole/kg, 1 mL/kg dose solution in saline through a cannula into the duodenum. Animals in the fasted groups were fasted for approximately 4 hours after dosing and were returned to ad libitum access to food thereafter. Animals in the fed groups had access to food ad libitum for at least 2 hours prior to dosing, and throughout the day post dose.
as §3
Example 62 (trans) and risedronate were administered via intraduodenal (ID) and oral administration to fasted and fed rats. Similar to the procedure described above in relation to the IV study, the urine of the rats was collected, and risedronate was recovered from urine. Risedronate exposure following ID and oral administration was calculated as percentage of the recovered risedronate from the dosed cyclic acetal (Formula A), and the results were compared to that from dosing with risedronate, See Table 4.

The mark [5] stands for this setting: IV, dose 1.7 micromole/kg, rats, % CV in parentheses.
Setting [6] is: after IV administration of risedronate to rats.

`CC(=O)Oc1ccc(C2OP(=O)(O)C(O)(Cc3cccnc3)P(=O)(O)O2)cc1` (centres unmarked) [Example 28]: the “urinary recovery of the cyclic acetal” value in data set [1] (rat, in vivo, iv) is recorded as “very low”. Regarding `CCCC(=O)Oc1ccc(C2OP(=O)(O)C(O)(Cc3cccnc3)P(=O)(O)O2)cc1` (centres unmarked) [Example 29], in data set [1] (rat, in vivo, iv), the “dosed cyclic acetal converted to risedronate” value was greater than 100% and the “urinary recovery of the cyclic acetal” value was “very low”. For `CCCC(=O)Oc1ccc(C2OP(=O)(O)C(O)(Cc3cccnc3)P(=O)(O)O2)cc1F` (centres unmarked) [Example 30], the “urinary recovery of the cyclic acetal” value in data set [1] (rat, in vivo, iv) is on record as “very low”. Consider `CC(C)C(=O)Oc1ccc(C2OP(=O)(O)C(O)(Cc3cccnc3)P(=O)(O)O2)cc1` (stereo not drawn) [Example 33 (trans)], for which the “urinary recovery of the cyclic acetal” value in data set [1] (rat, in vivo, iv) is recorded as “very low”. `CCOC(=O)Oc1ccc(C2OP(=O)(O)C(O)(Cc3cccnc3)P(=O)(O)O2)cc1` (centres unmarked) [Example 36]: the “systemic exposure of cyclic acetal and risedronate” value (“systemic exposure” for short) in data set [1] (rat, in vivo, iv) is “both systemic exposure of the cyclic acetal and risedronate”.

On to `CC(C)=CC(=O)Oc1ccc(C2OP(=O)(O)C(O)(Cc3cccnc3)P(=O)(O)O2)cc1F` (centres unmarked) [Example 47], for which the “urinary recovery of the cyclic acetal” value in data set [1] (rat, in vivo, iv) is on record as “very low”. With `COC(=O)Oc1ccccc1C1OP(=O)(O)C(O)(Cc2cccnc2)P(=O)(O)O1` (stereo not drawn) [Example 50 (trans)], the “systemic exposure” value in data set [1] (rat, in vivo, iv) was “both systemic exposure of the cyclic acetal and risedronate”.

On to `O=C(Oc1c(F)cccc1C1OP(=O)(O)C(O)(Cc2cccnc2)P(=O)(O)O1)N1CCOCC1` (centres unmarked) [Example 53], for which, in data set [2], the solubility in water result is listed as “very low”. For `CC(C)OC(=O)Oc1ccccc1C1OP(=O)(O)C(O)(Cc2cccnc2)P(=O)(O)O1` (stereo not drawn) [Example 62 (trans)], in data set [1] (rat, in vivo, iv), the “risedronate release rate into the bloodstream vs risedronate” value is “slower”; the “systemic exposure” value was “both systemic exposure of the cyclic acetal and risedronate”. Moreover, in data set [3], the “D20, 20% > BMD than control” value came to 5 mcg P/kg; the “LED (lowest effective dose)” value is given as 3 mcg P/kg; the “bone density in the rat proximal tibial metaphysis” value is “efficacious”.

Turning to `CC(C)OC(=O)Oc1ccc(C2OP(=O)(O)C(O)(Cc3cccnc3)P(=O)(O)O2)c(F)c1` (centres unmarked) [Example 63], the “urinary recovery of the cyclic acetal” value in data set [1] (rat, in vivo, iv) is reported as “very low”.

Turning to `O=C(Cc1ccccc1)Oc1ccc(C2OP(=O)(O)C(O)(Cc3cccnc3)P(=O)(O)O2)cc1` (stereo not drawn) [Example 79 (trans)], in data set [1] (setting [5]), the “Amount of Cyclic Acetal Excreted” value was 0.3 (220) % of administered dose excreted in urine. Consider `O=C(Cc1ccccc1)Oc1ccc(C2OP(=O)(O)C(O)(Cc3cccnc3)P(=O)(O)O2)cc1` (centres unmarked) [Example 79], for which the “urinary recovery of the cyclic acetal” value in data set [1] (IV, rats, rapid rate of conversion to risedronate in vivo) is “very low”. Take `O=C1OCCN1C(=O)Oc1ccccc1C1OP(=O)(O)C(O)(Cc2cccnc2)P(=O)(O)O1` (centres unmarked) [Example 82]: the “dosed cyclic acetal converted to risedronate” value in data set [1] (rat, in vivo, iv) came to 43%. Regarding `CC1(C)CN(C(=O)Oc2cc(F)c(C3OP(=O)(O)C(O)(Cc4cccnc4)P(=O)(O)O3)c(F)c2)C(=O)O1` (centres unmarked) [Example 83], the “urinary recovery of the cyclic acetal” value in data set [1] (rat, in vivo, iv) was “very low”.

`CCCC(=O)Oc1ccccc1C1OP(=O)(O)C(O)(Cc2cccnc2)P(=O)(O)O1` (centres unmarked) [Example 105]: the “urinary recovery of the cyclic acetal” value in data set [1] (rat, in vivo, iv) is listed as “very low”. In the case of `CC(C)OC(=O)Oc1ccccc1C1OP(=O)(O)C(O)(Cn2ccnc2)P(=O)(O)O1` (centres unmarked) [Example 128, Carbonic acid isopropyl ester 2-(2,3,4-trihydroxy-3-imidazol-1-ylmethyl-2,4-dioxo-2λ^5,4λ^5-[1,5,2,4]dioxadiphosphinan-6-yl)-phenyl ester], in data set [3], the “D20, 20% > BMD than control” value came to 0.5 mcg P/kg; the “LED (lowest effective dose)” value was found to be 1 mcg P/kg; the “bone density in the rat proximal tibial metaphysis” value is on record as “efficacious”. Regarding `O=P(O)(O)C(O)(Cc1cccnc1)P(=O)(O)O` [Risedronate, risedronate, reference compound], the “Amount Excreted: Risedronate (risedronate administered)” value in data set [1] (setting [5]) was 36 (13) % of administered dose excreted in urine and 39 % of administered dose excreted in urine; in data set [4] (ID fed, % CV in parentheses), 0.012 (50) % of administered dose excreted in urine; in data set [4] (Oral fast), 0.13 % of administered dose excreted in urine; in data set [4] (Oral fed), 0.003 % of administered dose excreted in urine. For the same compound, the “risedronate binds to bone” value in data set [1] (setting [6]) is “about 60%”. For the same compound, in data set [1] (setting [6]), the “risedronate dosed excreted in urine” value is “about 40%”. Moreover, the “D20, 20% > BMD than control” value in data set [3] is reported as 1.8 mcg P/kg. Besides, in data set [3], the “LED (lowest effective dose)” value stood at 1 mcg P/kg. Also, the “risedronate exposure with food compared to fasted rats” value in data set [4] (fed rats) is on record as “extensive reduction”. For the same compound, in data set [4] (orally to fasted rats), the “risedronate exposure as estimated by urinary recovery” value is on record as “less than 1 % of dose”. As for `O=P(O)(O)C(O)(Cn1ccnc1)P(=O)(O)O` [Zoledronic acid, (1-hydroxy-2-imidazol-1-yl)-ethyl-1,1-bisphosphonic acid, reference compound], in data set [3], the “D20, 20% > BMD than control” value is recorded as 0.1 mcg P/kg and the “LED (lowest effective dose)” value came to 0.1 mcg P/kg.
